From US20240368109A1, “ALLOSTERIC MODULATORS OF NICOTINIC ACETYLCHOLINE RECEPTORS” (MERCK SHARP & DOHME LLC, priority 2021, published 2024)

Biological target: human α7 nAChR (Homo sapiens (Human), UniProt P36544)
Assay: Automated patch-clamp electrophysiology functional assay (Assay A)
Type: cell-based
Conditions: IonFlux HT whole-cell population patch, HEK cells expressing human α7/RIC-3, 40 μM acetylcholine
Method: The α7 nAChR positive allosteric modulator (PAM) activity of the present compounds may be tested using assays known in the art. The α7 nAChR PAMs described herein have activities in an automated patch-clamp electrophysiology functional assay as described in the examples. The assay was performed using the IonFlux HT in a whole-cell, population patch configuration. See Golden et al. Assay Drug Dev. Technol. (2011) 9:608-619. The compounds were assessed for their ability to modulate the function of the human α7 nAChR stably expressed in a HEK cell line both in the presence, and in the absence of the natural α7 agonist acetylcholine. By performing a series of such measurements at different concentrations, the effective concentration of the α7 nAChR PAMs (EC50) was determined. See Spencer et al. Assay Drug Dev. Technol. (2012) 10:313-324.
Direct activation of α7 (agonism), and potentiation of acetylcholine-evoked α7 currents was determined as follows:
Automated Patch-Clamp Electrophysiology Functional Assay (Assay A)
Automated patch-clamp electrophysiology was performed using the IonFluxHT (Fluxion Biosciences Inc., San Francisco, CA) in the whole-cell, population patch configuration. Test compounds were assessed for their ability to modulate the function of the α7 nicotinic acetylcholine receptor both in the presence, and in the absence of the natural α7 agonist acetylcholine. A HEK cell line stably expressing both human RIC-3 and human α7 (PrecisION hnAChR α7/RIC-3, Eurofins Pharma, St. Charles, MO) was cultured in 175 cm^2 triple-layer tissue culture flasks to no more than 90% confluency in DMEM/F-12 growth media supplemented with 10% heat-inactivated fetal bovine serum, 1% non-essential amino acids, 0.625 μg/mL Puromycin, and 400 μg/mL Geneticin. Immediately prior to assay, cells were detached by first aspirating growth media, rinsing with Dulbecco's phosphate buffered saline, and then adding 10 mL of Accutase (Innovative Cell Technologies, San Diego, CA) to the flask and then incubating at 37° C. for 5 minutes. Detached cells were then recovered by the addition of 40 mL of CHO-serum-free media supplemented with 25 mM HEPES, and rocked gently in a 50 mL conical tube for 20 minutes prior to patch-clamp assay. After recovery, cells were pelleted by centrifugation at 1,000 RPM for 1 minute in a compact bench top centrifuge; recovery media was aspirated and cells were resuspended in external recording solution (150 mM NaCl, 5 mM KCl, 2 mM CaCl2), 1 mM MgCl2, 10 mM HEPES, 12 mM dextrose) to a density of 5.0×10^6 cells/mL. The cell suspension was added to the cell inlet wells on an IonFlux HT population patch plate which had previously been rinsed and primed with deionized H2O. Test compounds were serially diluted in DMSO and then resuspended to the final test concentration in external recording solution, with, or without 40 μM acetylcholine added to the external recording solution; test compounds were then transferred to the IonFlux HT population patch plate. Internal recording solution (110 mM TrisPO4, 28 mM TrisBase, 0.1 mM CaCl2), 2 mM MgCl2, 11 mM EGTA, 4 mM MgATP) was added to the internal recording solution inlet wells on the IonFlux HT patch plate previously loaded with cells and test compounds, and the plate loaded into the IonFlux HT instrument. A protocol was executed on the IonFlux HT to trap the cells, break into the cells, and establish the whole-cell recording configuration; cells were voltage-clamped at a holding potential of −60 mV for the duration of the experiment, all experiments were conducted at room temperature, and the IonFlux HT injection pressure was 8 psi for solution applications. Upon establishing the whole-cell configuration, external recording solution was perfused into the recording chambers for 120 seconds and then 40 μM acetylcholine was applied for 1 second and immediately washed off with external recording solution for 60 seconds. […]

Chain of human α7 nAChR (P36544 23-502): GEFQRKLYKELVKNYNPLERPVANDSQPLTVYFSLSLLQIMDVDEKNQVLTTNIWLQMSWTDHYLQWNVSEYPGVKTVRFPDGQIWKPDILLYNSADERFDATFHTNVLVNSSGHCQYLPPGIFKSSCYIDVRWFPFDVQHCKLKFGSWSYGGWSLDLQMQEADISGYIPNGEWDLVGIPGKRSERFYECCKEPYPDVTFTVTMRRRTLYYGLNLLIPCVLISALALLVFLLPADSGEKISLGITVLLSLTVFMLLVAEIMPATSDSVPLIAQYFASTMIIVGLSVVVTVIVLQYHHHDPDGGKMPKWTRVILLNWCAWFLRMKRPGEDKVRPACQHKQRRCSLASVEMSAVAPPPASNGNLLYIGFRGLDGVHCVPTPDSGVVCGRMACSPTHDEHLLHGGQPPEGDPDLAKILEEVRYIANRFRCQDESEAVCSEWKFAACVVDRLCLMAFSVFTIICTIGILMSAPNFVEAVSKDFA

| Compound | EC50 (electrophysiology EC50 values) [µM] | EC50 (potency class) [µM] |
| --- | --- | --- |
| COc1cccc(OC)c1CNC(=O)C1C2COc3ccccc3C21 (stereo not drawn) [Example A17, exo-N-[(2,6-dimethoxyphenyl)methyl]-1,1a,2,7b-tetrahydrocyclopropa[c][1]benzopyran-1-carboxamide] | 1.1 | 0.5 to 5 |
| CC(C)(NC(=O)C1C2COc3ccc(F)cc3C21)c1cccc(Cl)c1 (stereo not drawn) [Example A18, exo-N-[2-(3-chlorophenyl)propan-2-yl]-6-fluoro-1,1a,2,7b-tetrahydrocyclopropa[c][1]benzopyran-1-carboxamide] | 2.5 | 0.5 to 5 |
| O=C(N[C@H]1CCOc2cc(F)c(F)cc21)C1C2COc3ccccc3C21 (stereo partly drawn) [Example A19, exo-N-[(4S)-6,7-difluoro-3,4-dihydro-2H-1-benzopyran-4-yl]-1,1a,2,7b-tetrahydrocyclopropa[c][1]benzopyran-1-carboxamide] | 1.6 | 0.5 to 5 |
| O=C(N[C@@H](C(F)F)C1CCCCC1)C1C2COc3ccccc3C21 (stereo partly drawn) [Example A20, exo-N-[(1R)-1-cyclohexyl-2,2-difluoroethyl]-1,1a,2,7b-tetrahydrocyclopropa[c][1]benzopyran-1-carboxamide] | 0.57 | 0.5 to 5 |
| CCOc1ccc([C@H](COC)NC(=O)C2C3Oc4ccccc4C32)cc1 (stereo partly drawn) [Example B1, exo-N-[(1R)-1-(4-ethoxyphenyl)-2-methoxyethyl]-1a,6b-dihydro-1H-cyclopropa[b][1]benzofuran-1-carboxamide] | 1.2 | 0.5 to 5 |
| CCOc1ccc([C@H](COC)NC(=O)C2C3Oc4ccccc4C32)cc1 (stereo partly drawn) [Example B2, exo-N-[(1R)-1-(4-ethoxyphenyl)-2-methoxyethyl]-1a,6b-dihydro-1H-cyclopropa[b][1]benzofuran-1-carboxamide] | 1.5 | 0.5 to 5 |
| CCOc1ccc([C@H](COC)NC(=O)C2C3Oc4ccccc4C32)cc1 (stereo partly drawn) [Example B3, exo-N-[(1R)-1-(4-ethoxyphenyl)-2-methoxyethyl]-1a,6b-dihydro-1H-cyclopropa[b][1]benzofuran-1-carboxamide] | 0.47 | 0.1 to 0.5 |
| CCOc1ccc([C@H](COC)NC(=O)C2C3Oc4ccc(F)cc4C32)cc1 (stereo partly drawn) [Example B4, exo-N-[(1R)-1-(4-ethoxyphenyl)-2-methoxyethyl]-5-fluoro-1a,6b-dihydro-1H-cyclopropa[b][1]benzofuran-1-carboxamide] | 0.94 | 0.5 to 5 |
| CCOc1ccc([C@H](COC)NC(=O)C2C3Oc4ccc(F)cc4C32)cc1 (stereo partly drawn) [Example B5, exo-N-[(1R)-1-(4-ethoxyphenyl)-2-methoxyethyl]-5-fluoro-1a,6b-dihydro-1H-cyclopropa[b][1]benzofuran-1-carboxamide] | 0.76 | 0.5 to 5 |
| CCOc1ccc([C@H](COC)NC(=O)C2C3Oc4c(Cl)cccc4C32)cc1 (stereo partly drawn) [Example B6, exo-3-chloro-N-[(1R)-1-(4-ethoxyphenyl)-2-methoxyethyl]-1a,6b-dihydro-1H-cyclopropa[b][1]benzofuran-1-carboxamide] |  | 0.1 to 0.5 |
| CCOc1ccc([C@H](COC)NC(=O)C2C3Oc4c(Cl)cccc4C32)cc1 (stereo partly drawn) [Example B7, exo-3-chloro-N-[(1R)-1-(4-ethoxyphenyl)-2-methoxyethyl]-1a,6b-dihydro-1H-cyclopropa[b][1]benzofuran-1-carboxamide] | 0.48 | 0.1 to 0.5 |
| CCOc1ccc([C@H](COC)NC(=O)C2C3Oc4c(Br)cccc4C32)cc1 (stereo partly drawn) [Example B8, exo-3-bromo-N-[(1R)-1-(4-ethoxyphenyl)-2-methoxyethyl]-1a,6b-dihydro-1H-cyclopropa[b][1]benzofuran-1-carboxamide] | 0.28 | 0.1 to 0.5 |
| CCOc1ccc([C@H](COC)NC(=O)C2C3Oc4c(Br)cccc4C32)cc1 (stereo partly drawn) [Example B9, exo-3-bromo-N-[(1R)-1-(4-ethoxyphenyl)-2-methoxyethyl]-1a,6b-dihydro-1H-cyclopropa[b][1]benzofuran-1-carboxamide] | 0.39 | 0.1 to 0.5 |
